From PMC6982817, “Substituted N-(Pyrazin-2-yl)benzenesulfonamides; Synthesis, Anti-Infective Evaluation, Cytotoxicity, and In Silico Studies” (Molecules, 2019)
≈ marks a conversion by molar mass, not a printed value. Read-outs that look alike come from different tables or passages of the source.

Columns and labels:
[1] = tested on: Mycobacterium tuberculosis H37Rv CNCTC My 331/88 (ATCC 27294); assay: Antimycobacterial microplate alamar blue assay, M. tuberculosis H37Rv; type: cell-based; conditions: for Antimycobacterial Activity MIC Mtb H37Rv: Middlebrook 7H9 broth pH 6.6, alamar blue; for MIC: Mycobacterium tuberculosis
[2] = tested on: M. avium ssp. avium CNCTC My 80/72 (ATCC 15769); assay: Antimycobacterial microplate alamar blue assay, M. avium; type: cell-based, Mycobacterium avium; conditions: for MIC: Mycobacterium avium
in vitro = conditions: human
[3] = tested on: Mycobacterium smegmatis DSM 43465 (ATCC 607); assay: Antimycobacterial microdilution assay, M. smegmatis; type: cell-based; conditions: for MIC: Mycolicibacterium smegmatis
[4] = tested on: Mycobacterium aurum DSM 43999 (ATCC 23366); assay: Antimycobacterial microdilution assay, M. aurum; type: cell-based; conditions: Middlebrook 7H9 broth, resazurin after 72 hours; for MIC: Mycolicibacterium aurum, 72 h
[5] = tested on: M. kansasii CNCTC My 235/80 (ATCC 12478); assay: Antimycobacterial microplate alamar blue assay, M. kansasii; type: cell-based, Mycobacterium kansasii; conditions: for MIC: Mycobacterium kansasii; for Antimycobacterial Activity MIC M. kansasii: Middlebrook 7H9 broth pH 6.6, alamar blue
[6] = ATCC15769, pH 6.6, Middlebrook 7H9 broth pH 6.6, alamar blue, read-out: Antimycobacterial Activity MIC M. avium
[7] = 48 h, Middlebrook 7H9 broth, resazurin after 48 hours, read-out: Antimycobacterial Activity MIC M. smeg
[8] = ATCC12478, pH 6.6, Middlebrook 7H9 broth pH 6.6, alamar blue, read-out: Antimycobacterial Activity MIC M. kansasii
[9] = Table 4 comparison, title compounds, read-out: Antimycobacterial Activity MIC against Mtb H37Rv, Sulfonamide
[10] = pH 6.6, Middlebrook 7H9 broth pH 6.6, alamar blue, read-out: Antimycobacterial Activity MIC Mtb H37Rv
[11] = ATCC12478, molar value printed beside μg/mL in text, read-out: MIC M. kansasii
[12] = Middlebrook 7H9 broth, resazurin after 48 hours

Row | Compound | Antimycobacterial Activity MIC Mtb H37Rv [1] | MIC ([1]; pH 6.6, read-out: Antimycobacterial Activity MIC Mtb H37Rv) [µg/mL] | MIC [2, 6] [µg/mL] | IC50 at 24 h (in vitro) [µM] | melting point [°C] | MIC [3, 7] [µg/mL] | MIC [4] [µg/mL] | MIC [5, 8] [µg/mL] | MIC [1, 9] [µg/mL] | MIC [1, 10] [µg/mL] | MIC [5, 11] [µM] | MIC ([1]; read-out: MIC Mtb H37Rv) [µM] | MIC ([2]; ATCC15769, molar value printed beside μg/mL in text, read-out: MIC M. avium) [µM] | Antimycobacterial Activity MIC M. kansasii [5] [µg/mL] | MIC ([3]; read-out: MIC M. smegmatis) [µM] | Antimycobacterial Activity MIC M. smeg [3, 12] [µg/mL] | Antimycobacterial Activity MIC M. aurum [4] [µg/mL] | Antimycobacterial Activity MIC M. avium ([2]; Middlebrook 7H9 broth pH 6.6, alamar blue) [µg/mL]
1 | NS(=O)(=O)c1ccccc1 [Benzenesulfonamide, benzenesulfonamide] | completely inactive | > 100 |  |  |  |  |  |  |  |  |  |  |  |  |  |  |  | 
2 | O=S(=O)(Nc1cnccn1)c1ccccc1 [Compound 1a, N-(pyrazin-2-yl)benzenesulfonamide] |  |  | > 100 | > 1000 | 203 to 205 | ≥ 250 | ≥ 500 | 100 | > 100 | > 100 |  |  |  |  |  |  |  | 
3 | O=S(=O)(Nc1cncc(Cl)n1)c1ccccc1 [Compound 1b, N-(6-chloropyrazin-2-yl)benzenesulfonamide] |  |  | > 100 | 731 | 198 to 200.2 | 250 | ≥ 500 | 100 | 50 | 50 |  |  |  |  |  |  |  | 
4 | CC(=O)Nc1ccc(S(=O)(=O)Nc2cnccn2)cc1 [Compound 2a, N-(4-(N-(pyrazin-2-yl)sulfamoyl)phenyl)acetamide] |  |  | > 100 | > 500 | 243.8 to 245.6 | ≥ 500 | ≥ 500 | 25 |  | > 100 | 85.5 |  |  |  |  |  |  | 
5 | CC(=O)Nc1ccc(S(=O)(=O)Nc2cncc(Cl)n2)cc1 [Compound 2b, N-(4-(N-(6-chloropyrazin-2-yl)sulfamoyl)phenyl)acetamide] |  |  | > 100 | > 500 |  | 250 | ≥ 500 | 25 |  | > 100 | 76.5 |  |  |  |  |  |  | 
6 | O=[N+]([O-])c1ccc(S(=O)(=O)Nc2cnccn2)cc1 [Compound 3a, 4-nitro-N-(pyrazin-2-yl)benzenesulfonamide] |  |  | > 100 | > 1000 | 230.8 to 231.8 | > 500 | > 500 | > 100 |  | > 100 |  |  |  |  |  |  |  | 
7 | O=[N+]([O-])c1ccc(S(=O)(=O)Nc2cncc(Cl)n2)cc1 [Compound 3b, N-(6-chloropyrazin-2-yl)-4-nitrobenzenesulfonamide] |  |  | > 100 | > 1000 |  | 250 | 125 (≈ 397 µM) | > 100 |  | > 100 |  |  |  |  |  |  |  | 
8 | Nc1ccc(S(=O)(=O)Nc2cnccn2)cc1 [Compound 4a, 4-amino-N-(pyrazin-2-yl)benzenesulfonamide] |  |  | 100 | 776 |  | ≥ 500 | 250 (≈ 999 µM) |  |  | 6.25 | 6.2 | 25 |  |  |  |  |  | 
9 | Nc1ccc(S(=O)(=O)Nc2cncc(Cl)n2)cc1 [Compound 4b, 4-amino-N-(6-chloropyrazin-2-yl)benzenesulfonamide] |  |  | 25 | > 500 | 234.7 to 236.1 | ≥ 500 | 250 (≈ 878 µM) | 12.5 |  | 6.25 | 44 | 22 | 88 |  |  |  |  | 
10 | O=S(=O)(Nc1cnccn1)c1ccc(C(F)(F)F)cc1 [Compound 5a, N-(pyrazin-2-yl)-4-(trifluoromethyl)benzenesulfonamide] |  |  | > 100 | > 1000 | 154.3 to 155.5 | 250 | 250 (≈ 824 µM) | 50 |  | > 100 |  |  |  |  |  |  |  | 
11 | O=S(=O)(Nc1cncc(Cl)n1)c1ccc(C(F)(F)F)cc1 [Compound 5b, N-(6-chloropyrazin-2-yl)-4-(trifluoromethyl)benzenesulfonamide] |  |  | > 100 | 364 | 125 to 127.2 | 250 | 250 (≈ 740 µM) | > 100 |  | 100 |  |  |  |  |  |  |  | 
12 | COc1ccc(S(=O)(=O)Nc2cnccn2)cc1 [Compound 6a, 4-methoxy-N-(pyrazin-2-yl)benzenesulfonamide] |  |  | > 100 | > 1000 |  | ≥ 500 | ≥ 500 | > 100 | > 100 | > 100 |  |  |  |  |  |  |  | 
13 | O=S(=O)(Nc1cncc(Cl)n1)c1ccc(Br)cc1 [Compound 7b, 4-bromo-N-(6-chloropyrazin-2-yl)benzenesulfonamide] |  |  | > 100 | 308 | 176.5 to 179.3 | 125 | 125 (≈ 359 µM) | 50 |  | 100 |  |  |  |  |  |  |  | 
14 | Cc1cc(C)cc(S(=O)(=O)Nc2cnccn2)c1 [Compound 8a, 3,5-dimethyl-N-(pyrazin-2-yl)benzenesulfonamide] |  |  | > 100 | > 500 | 184 to 187 | ≥ 500 | 250 (≈ 949 µM) | 50 |  | > 100 |  |  |  |  |  |  |  | 
15 | Cc1cc(C)cc(S(=O)(=O)Nc2cncc(Cl)n2)c1 [Compound 8b, N-(6-chloropyrazin-2-yl)-3,5-dimethylbenzenesulfonamide] |  |  | 50 | 523 |  | ≥ 500 | ≥ 500 | > 100 |  | 50 |  |  |  |  |  |  |  | 
16 | Cc1cc(C)c(S(=O)(=O)Nc2cnccn2)c(C)c1 [Compound 9a, 2,4,6-trimethyl-N-(pyrazin-2-yl)benzenesulfonamide] |  |  | > 100 | > 250 |  | 125 | ≥ 500 | > 100 |  | > 100 |  |  |  |  |  |  |  | 
17 | Cc1cc(C)c(C)c(S(=O)(=O)Nc2cnccn2)c1C [Compound 10a, 2,3,5,6-tetramethyl-N-(pyrazin-2-yl)benzenesulfonamide] |  |  | > 100 | > 250 | 221 to 223.7 | ≥ 500 | ≥ 500 | 50 |  | > 100 |  |  |  |  |  |  |  | 
18 | O=S(=O)(Nc1cnccn1)c1ccc2c(c1)OCCO2 [Compound 11a, N-(pyrazin-2-yl)-2,3-dihydrobenzo[b][1,4]dioxine-6-sulfonamide] |  |  | > 100 | > 1000 | 264 to 267.1 | ≥ 500 | 250 (≈ 852 µM) | > 100 |  | > 100 | > 305 |  |  | >100 |  |  |  | 
19 | O=S(=O)(Nc1cncc(Cl)n1)c1ccc2c(c1)OCCO2 [Compound 11b, N-(6-chloropyrazin-2-yl)-2,3-dihydrobenzo[b][1,4]dioxine-6-sulfonamide] |  |  | > 100 | 778 | 244.6 to 247 | ≥ 500 | ≥ 500 | 25 |  | > 100 | 76.3 |  |  |  |  |  |  | 
20 | O=S(=O)(Nc1cnccn1)c1ccc(-c2ccccc2)cc1 [Compound 12a, N-(pyrazin-2-yl)-[1,1′-biphenyl]-4-sulfonamide] |  |  | > 100 | > 250 |  | ≥ 500 | ≥ 500 | 100 |  | 100 | 321 |  |  |  |  |  |  | 
21 | O=S(=O)(Nc1cncc(Cl)n1)c1ccc(-c2ccccc2)cc1 [Compound 12b, N-(6-chloropyrazin-2-yl)-[1,1′-biphenyl]-4-sulfonamide] |  |  | > 100 | 302 | 229.3 to 230.3 | ≥ 500 | ≥ 500 | 12.5 |  | 100 | 36.1 |  |  |  |  |  |  | 
22 | O=S(=O)(Nc1cnccn1)c1ccc2ccccc2c1 [Compound 13a, N-(pyrazin-2-yl)naphthalene-2-sulfonamide] |  |  | > 100 | > 500 | 223.5 to 224.7 | 62.5 | ≥ 500 | 50 |  | > 100 |  |  |  |  | 219 |  |  | 
23 | O=S(=O)(Nc1cnccn1)c1ccc2ncccc2c1 [Compound 14a, N-(pyrazin-2-yl)quinoline-6-sulfonamide] |  |  | > 100 | > 250 | 249.4 to 252 | ≥ 500 | ≥ 500 | 100 |  | > 100 |  |  |  |  |  |  |  | 
24 | CO[C@H]1/C=C/O[C@@]2(C)Oc3c(C)c(O)c4c(O)c(c(/C=N/N5CCN(C)CC5)c(O)c4c3C2=O)NC(=O)/C(C)=C\C=C\[C@H](C)[C@H](O)[C@@H](C)[C@@H](O)[C@@H](C)[C@H](OC(C)=O)[C@@H]1C [RFM, reference compound] |  |  |  |  |  | 12.5 to 25 | 0.78 to 1.56 (≈ 0.948 to 1.9 µM) |  |  |  |  |  |  |  |  | 25 | 1.56 | 
25 | Nc1ccc(S(=O)(=O)Nc2cncc(Cl)n2)cc1 [Sulfaclozine, reference compound] | 6.25 µg/mL |  |  |  |  |  |  |  |  |  |  |  |  | 12.5 |  | 250 | 250 | 25
26 | Nc1ccc(S(=O)(=O)Nc2cnc3ccccc3n2)cc1 [Sulfaquinoxaline, reference compound] |  |  | 50 |  |  | 125 | 250 (≈ 832 µM) | 12.5 |  | 3.13 |  |  |  |  |  |  |  | 
